The values below come from patent US7728106B2, “HIV-1 glycopeptides and derivatives; preparation and applications thereof” (University of Maryland Biotechnology Institute, priority 2005, dated 2010).

In one data set the test system is pronase (Actinase E). The experiment in a line: Stability toward pronase digestion. In kind it is in vitro ADME. The conditions noted are these: 40 μM peptide, phosphate buffer pH 7.4, 125 ng pronase, 40 minutes, 30° C.; HPLC; FIG. 7B. Here is the method: (§1) FIG. 7A is a graph for digestion with furin, under reaction conditions involving a solution of each peptide (40 μM) in a phosphate buffer (pH 7.0, total 30 μl) incubated with 10 units of furin (Sigma; a unit being defined by the amount of furin that hydrolyzes one pmol substrate in 1 minute under the optimal condition) for 16 hours at 30° C., and the remaining starting peptide was quantified by HPLC and confirmed by ESI-MS determination. FIG. 7B is a graph for digestion with pronase under reaction conditions involving a solution of each peptide (40 μM) in a phosphate buffer (pH 7.4, total 100 μl) incubated with 125 ng of pronase (Sigma) for 40 minutes at 30° C., and the remaining starting peptide was quantified by HPLC and confirmed by ESI-MS determination.
(§2) Next, the stability of the V3 glycopeptides against pronase digestion was tested. The pronase (Actinase E, Sigma) is a mixture of at least three proteolytic activities.

For a further data set, the target named is T1, furin (Homo sapiens, UniProt P09958).
T1 construct: purchased Sigma
The experiment in a line: Stability toward furin digestion. In kind it is in vitro ADME. The settings on record: 40 μM peptide, phosphate buffer pH 7.0, 10 units furin, 16 hours, 30° C.; HPLC; FIG. 7A. The procedure: To test this, a quick experiment was performed on the resistance of the synthetic V3 glycopeptides against different proteases. The protease furin was reported to be able to cleave the V3 domain of gp120 at the sequence 302-312 [134-136]. Therefore, the stability of the synthetic glycopeptides toward furin digestion was initially examined. The enzyme was obtained from Sigma and the digestion was monitored by HPLC and ESI-MS analysis.
as §1, §2

T1 sequence (P09958 108-794, species assumed): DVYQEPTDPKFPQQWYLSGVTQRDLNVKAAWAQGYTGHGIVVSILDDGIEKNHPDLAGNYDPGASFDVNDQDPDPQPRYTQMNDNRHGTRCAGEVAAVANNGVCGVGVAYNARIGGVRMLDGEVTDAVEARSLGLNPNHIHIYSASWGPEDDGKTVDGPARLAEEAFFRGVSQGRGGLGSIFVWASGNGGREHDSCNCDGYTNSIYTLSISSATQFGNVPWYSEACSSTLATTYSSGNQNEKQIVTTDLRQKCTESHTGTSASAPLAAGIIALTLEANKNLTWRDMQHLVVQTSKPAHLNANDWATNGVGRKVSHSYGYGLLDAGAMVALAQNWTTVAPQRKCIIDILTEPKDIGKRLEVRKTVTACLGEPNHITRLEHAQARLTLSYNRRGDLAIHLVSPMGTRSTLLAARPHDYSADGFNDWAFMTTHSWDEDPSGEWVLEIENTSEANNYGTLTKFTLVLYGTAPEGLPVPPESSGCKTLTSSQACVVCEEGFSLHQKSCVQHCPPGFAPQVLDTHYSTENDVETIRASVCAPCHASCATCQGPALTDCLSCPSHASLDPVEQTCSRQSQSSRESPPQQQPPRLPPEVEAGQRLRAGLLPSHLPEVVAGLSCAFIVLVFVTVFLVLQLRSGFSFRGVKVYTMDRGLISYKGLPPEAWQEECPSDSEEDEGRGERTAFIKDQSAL

For `CC[C@H](C)[C@@H]1NC(=O)[C@H](CCCCN)NC(=O)CNC(=O)[C@H]([C@@H](C)CC)NC(=O)[C@H]([C@@H](C)O)NC(=O)[C@H](C(C)C)NC(=O)[C@H](Cc2ccccc2)NC(=O)[C@H](C)NC(=O)[C@H](CCCNC(=N)N)NC(=O)CNC(=O)[C@@H]2CCCN2C(=O)CNC(=O)[C@H](CCCNC(=N)N)NC(=O)[C@H](CCC(N)=O)NC(=O)[C@H]([C@@H](C)CC)NC(=O)[C@H](CCCNC(=N)N)NC(=O)[C@H]([C@@H](C)CC)NC(=O)[C@H](CCCNC(=N)N)NC(=O)[C@H](CCCCN)NC(=O)[C@H](CCCNC(=N)N)NC(=O)[C@H]([C@@H](C)O)NC(=O)[C@H](CC(N)=O)NC(=O)[C@H](CC(N)=O)NC(=O)[C@H](CC(N)=O)NC(=O)[C@@H]2CCCN2C(=O)[C@H](CCCNC(=N)N)NC(=O)[C@H]([C@@H](C)O)NC(=O)[C@@H](NC(=O)[C@H](CC(=O)N[C@@H]2O[C@H](CO)[C@@H](O[C@@H]3O[C@H](CO)[C@@H](O[C@@H]4O[C@H](CO[C@H]5O[C@H](CO)[C@@H](O)[C@H](O)[C@@H]5O)[C@@H](O)[C@H](O[C@H]5O[C@H](CO)[C@@H](O)[C@H](O)[C@@H]5O)[C@@H]4O)[C@H](O)[C@H]3NC(C)=O)[C@H](O)[C@H]2NC(C)=O)NC(=O)[C@@H](NC(=O)[C@H](CCC(=O)O)NC(=O)[C@@H](NC(=O)[C@H](CO)NC(=O)[C@@H](N)[C@@H](C)O)C(C)C)[C@@H](C)CC)CSSC[C@@H](C(=O)N[C@@H](CC(=O)N[C@@H]2O[C@H](CO)[C@@H](O[C@@H]3O[C@H](CO)[C@@H](O[C@@H]4O[C@H](CO[C@H]5O[C@H](CO)[C@@H](O)[C@H](O)[C@@H]5O)[C@@H](O)[C@H](O[C@H]5O[C@H](CO)[C@@H](O)[C@H](O)[C@@H]5O)[C@@H]4O)[C@H](O)[C@H]3NC(C)=O)[C@H](O)[C@H]2NC(C)=O)C(=O)N[C@H](C(=O)N[C@@H](CO)C(=O)N[C@@H](CCCNC(=N)N)C(=O)N[C@@H](C)C(N)=O)[C@@H](C)CC)NC(=O)[C@H](Cc2c[nH]cn2)NC(=O)[C@H](C)NC(=O)[C@H](CCC(N)=O)NC(=O)[C@H](CCCNC(=N)N)NC(=O)[C@H](CCSC)NC(=O)[C@H](CC(N)=O)NC(=O)CNC1=O` [HB-V3-(G2M3)2], the “stability toward pronase digestion (remaining starting peptide)” value in the data set with pronase (Actinase E) was “most stable”. In addition, at furin, the “stability toward furin digestion (remaining starting peptide)” value is “most stable”.
